Reference: patent publication US12410207B2, “Galactoside inhibitor of galectins” (GALECTO BIOTECH AB, priority 2019, dated 2025)

Key:
[1] = target: Galectin-1 (Homo sapiens, UniProt P09382); test: Fluorescence anisotropy assay, inhibition of galectin / fluorescein tagged saccharide probe interaction; conditions: compound as inhibitor of probe binding
Description: (§1) The affinity of Example 1-45 for galectins were determined by a fluorescence anisotropy assay where the compound was used as an inhibitor of the interaction between galectin and a fluorescein tagged saccharide probe as described Sörme, P., Kahl-Knutsson, B., Huflejt, M., Nilsson, U. J., and Leffler H. (2004) Fluorescence polarization as an analytical tool to evaluate galectin-ligand interactions. Anal. Biochem. 334: 36-47, (Sorme et al., 2004) and Monovalent interactions of Galectin-1 By Salomonsson, Emma; Larumbe, Amaia; Tejler, Johan; Tullberg, Erik; Rydberg, Hanna; Sundin, Anders; Khabut, Areej; Frejd, Torbjorn; Lobsanov, Yuri D.; Rini, James M.; et al, From Biochemistry (2010), 49(44), 9518-9532, (Salomonsson et al., 2010).

[2] = target: Galectin-3 (Homo sapiens, UniProt P17931); test: as above; conditions: compound as inhibitor of probe binding
Description: as §1

Sequence of Galectin-3 (P17931 whole entry, species assumed): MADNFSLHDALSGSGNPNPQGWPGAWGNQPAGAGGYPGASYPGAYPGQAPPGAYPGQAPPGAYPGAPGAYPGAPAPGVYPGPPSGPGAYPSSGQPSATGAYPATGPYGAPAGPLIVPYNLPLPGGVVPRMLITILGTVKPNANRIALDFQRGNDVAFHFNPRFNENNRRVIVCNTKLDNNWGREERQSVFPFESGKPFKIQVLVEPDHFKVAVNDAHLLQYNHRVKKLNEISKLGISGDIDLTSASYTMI
Sequence of Galectin-1 (P09382 whole entry, species assumed): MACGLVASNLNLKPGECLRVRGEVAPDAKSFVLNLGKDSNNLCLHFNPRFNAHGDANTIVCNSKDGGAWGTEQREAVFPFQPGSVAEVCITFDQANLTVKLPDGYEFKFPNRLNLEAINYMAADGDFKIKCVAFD

Compound | Kd [1] | Kd [2]
OCC1O[C@H](Sc2cccc(Cl)c2)C(O)C(n2cc(-c3cccc(F)c3)cn2)[C@H]1O (stereo partly drawn) [Example 1, 3-Chlorophenyl 3-deoxy-3-[4-(3-fluorophenyl)-1H-1,2-pyrazol-1-yl]-1-thio-α-D-galactopyranoside] | 19.9 µM | 270 nM
Cc1c(F)cc(-c2cnn(C3C(O)[C@@H](Sc4cncc(Cl)c4)OC(CO)[C@@H]3O)c2)cc1F (stereo partly drawn) [Example 4, 5-Chloropyridin-3-yl 3-deoxy-3-[4-(3,5-difluoro-4-methylphenyl)-1H-1,2-pyrazol-1-yl]-1-thio-α-D-galactopyranoside] | 43 µM | 9 nM
OCC1O[C@H](Sc2cncc(Br)c2)C(O)C(n2cc(-c3cc(F)c(F)c(F)c3)cn2)[C@H]1O (stereo partly drawn) [Example 5, 5-Bromopyridin-3-yl 3-deoxy-3-[4-(3,4,5-trifluorophenyl)-1H-1,2-pyrazol-1-yl]-1-thio-α-D-galactopyranoside] | 14.8 µM | 25 nM
C#Cc1cncc(S[C@H]2OC(CO)[C@H](O)C(n3cc(-c4cc(F)c(Cl)c(F)c4)cn3)C2O)c1 (stereo partly drawn) [Example 7, 5-Ethynylpyridin-3-yl 3-[4-(4-chloro-3,5-difluorophenyl)-1H-1,2-pyrazol-1-yl]-3-deoxy-1-thio-α-D-galactopyranoside] | 30 µM | 14 nM
N#Cc1ccc(Cl)cc1S[C@H]1OC(CO)[C@H](O)C(n2cc(-c3cc(F)c(Cl)c(F)c3)cn2)C1O (stereo partly drawn) [Example 8, 5-Chloro-2-cyanophenyl 3-[4-(4-chloro-3,5-difluorophenyl)-1H-1,2-pyrazol-1-yl]-3-deoxy-1-thio-α-D-galactopyranoside] | 48 µM | 20 nM
O=C(c1ccc(Cl)cc1S[C@H]1OC(CO)[C@H](O)C(n2cc(-c3cc(F)c(Cl)c(F)c3)cn2)C1O)N1CCC1 (stereo partly drawn) [Example 9, 2-(N-azetidinyl-carbonyl)-5-chlorophenyl 3-[4-(4-chloro-3,5-difluorophenyl)-1H-1,2-pyrazol-1-yl]-3-deoxy-1-thio-α-D-galactopyranoside] | 19.2 µM | 12 nM
O=C(c1ccc(Cl)cc1S[C@H]1OC(CO)[C@H](O)C(n2cc(-c3cc(F)c(F)c(F)c3)cn2)C1O)N1CCC1 (stereo partly drawn) [Example 10, 2-(N-azetidinyl-carbonyl)-5-chlorophenyl 3-deoxy-3-[4-(3,4,5-trifluorophenyl)-1H-1,2-pyrazol-1-yl]-1-thio-α-D-galactopyranoside] | 6.8 µM | 15 nM
N#Cc1ccc(Cl)cc1S[C@H]1OC(CO)[C@H](O)C(n2cc(-c3cc(F)c(F)c(F)c3)cn2)C1O (stereo partly drawn) [Example 11, 5-Chloro-2-cyanophenyl 3-deoxy-3-[4-(3,4,5-trifluorophenyl)-1H-1,2-pyrazol-1-yl]-1-thio-α-D-galactopyranoside] | 9.8 µM | 24 nM
N#Cc1ncc(Cl)cc1S[C@H]1OC(CO)[C@H](O)C(n2cc(-c3cc(F)c(Cl)c(F)c3)cn2)C1O (stereo partly drawn) [Example 13, 5-Chloro-2-cyanopyridin-3-yl 3-[4-(4-chloro-3,5-difluorophenyl)-1H-1,2-pyrazol-1-yl]-3-deoxy-1-thio-α-D-galactopyranoside] | 34 µM | 14 nM
Cc1cnc(C#N)c(S[C@H]2OC(CO)[C@H](O)C(n3cc(-c4cc(F)c(F)c(F)c4)cn3)C2O)c1 (stereo partly shown) [Example 14] | 51 µM | 80 nM
C#Cc1cnc(C#N)c(S[C@H]2OC(CO)[C@H](O)C(n3cc(-c4cc(F)c(F)c(F)c4)cn3)C2O)c1 (stereo partly drawn) [Example 16, 2-Cyano-5-ethynylpyridin-3-yl 3-deoxy-3-[4-(3,4,5-trifluorophenyl)-1H-1,2-pyrazol-1-yl]-1-thio-α-D-galactopyranoside] | 12.7 µM | 21 nM
OCC1O[C@H](Sc2cncc(Cl)c2)C(O)C(n2cc(-c3cccc(F)n3)cn2)[C@H]1O (stereo partly drawn) [Example 18, 5-Chloropyridin-3-yl 3-deoxy-3-[4-(6-fluoropyridin-2-yl)-1H-1,2-pyrazol-1-yl]-1-thio-α-D-galactopyranoside] | 12.3 µM | 690 nM
OCC1O[C@H](Sc2cncc(Cl)c2)C(O)C(n2cc(-c3ccc(F)cn3)cn2)[C@H]1O (stereo partly drawn) [Example 19, 5-Chloropyridin-3-yl 3-deoxy-3-[4-(5-fluoropyridin-2-yl)-1H-1,2-pyrazol-1-yl]-1-thio-α-D-galactopyranoside] | 4.1 µM | 1600 nM
OCC1O[C@H](Sc2cncc(Cl)c2)C(O)C(n2cc(-c3cc(F)ccn3)cn2)[C@H]1O (stereo partly drawn) [Example 20, 5-Chloropyridin-3-yl 3-deoxy-3-[4-(4-fluoropyridin-2-yl)-1H-1,2-pyrazol-1-yl]-1-thio-α-D-galactopyranoside] | 10.2 µM | 630 nM
OCC1O[C@H](Sc2cncc(Cl)c2)C(O)C(n2cc(-c3cc[nH]n3)cn2)[C@H]1O (stereo partly drawn) [Example 21, 5-Chloropyridin-3-yl 3-deoxy-3-[4-(1H-1,2-pyrazol-3-yl)-1H-1,2-pyrazol-1-yl]-1-thio-α-D-galactopyranoside] | 8.9 µM | 12700 nM
Cn1ccc(-c2cnn(C3C(O)[C@@H](Sc4cncc(Cl)c4)OC(CO)[C@@H]3O)c2)n1 (stereo partly drawn) [Example 22, 5-Chloropyridin-3-yl 3-deoxy-3-[4-(1-methyl-1,2-pyrazol-3-yl)-1H-1,2-pyrazol-1-yl]-1-thio-α-D-galactopyranoside] | 14.7 µM | 9600 nM
OCC1O[C@H](Sc2cncc(Cl)c2)C(O)C(n2cc(-c3ncc[nH]3)cn2)[C@H]1O (stereo partly drawn) [Example 23, 5-Chloropyridin-3-yl 3-deoxy-3-[4-(1H-imidazol-2-yl)-1H-1,2-pyrazol-1-yl]-1-thio-α-D-galactopyranoside] | 3.4 µM | 9000 nM
OCC1O[C@H](Sc2cncc(Cl)c2)C(O)C(n2cc(-c3ncco3)cn2)[C@H]1O (stereo partly drawn) [Example 24, 5-Chloropyridin-3-yl 3-deoxy-3-[4-(oxazol-2-yl)-1H-1,2-pyrazol-1-yl]-1-thio-α-D-galactopyranoside] | 6.1 µM | 10300 nM
OCC1O[C@H](Sc2cncc(Cl)c2)C(O)C(n2cc(-c3cscn3)cn2)[C@H]1O (stereo partly drawn) [Example 25, 5-Chloropyridin-3-yl 3-deoxy-3-[4-(thiazol-4-yl)-1H-1,2-pyrazol-1-yl]-1-thio-α-D-galactopyranoside] | 1.3 µM | 9600 nM
OCC1O[C@H](Sc2cncc(Cl)c2)C(O)C(n2cc(-c3nccs3)cn2)[C@H]1O (stereo partly drawn) [Example 26, 5-Chloropyridin-3-yl 3-deoxy-3-[4-(thiazol-2-yl)-1H-1,2-pyrazol-1-yl]-1-thio-α-D-galactopyranoside] | 2.3 µM | 9900 nM
OCC1O[C@H](Sc2cncc(Cl)c2)C(O)C(n2cc(-c3nc(Cl)cs3)cn2)[C@H]1O (stereo partly drawn) [Example 27, 5-Chloropyridin-3-yl 3-[4-(4-chlorothiazol-2-yl)-1H-1,2-pyrazol-1-yl]-3-deoxy-1-thio-α-D-galactopyranoside] | 0.59 µM | 1500 nM
OCC1O[C@H](Sc2cncc(Br)c2)C(O)C(n2cc(-c3nc(Cl)cs3)cn2)[C@H]1O (stereo partly drawn) [Example 28, 5-Bromopyridin-3-yl 3-[4-(4-chlorothiazol-2-yl)-1H-1,2-pyrazol-1-yl]-3-deoxy-1-thio-α-D-galactopyranoside] | 0.52 µM | 1200 nM
N#Cc1ccc(Cl)cc1S[C@H]1OC(CO)[C@H](O)C(n2cc(-c3nc(Cl)cs3)cn2)C1O (stereo partly drawn) [Example 29, 5-Chloro-2-cyanophenyl 3-[4-(4-chlorothiazol-2-yl)-1H-1,2-pyrazol-1-yl]-3-deoxy-1-thio-α-D-galactopyranoside] | 0.49 µM | 1500 nM
N#Cc1ncc(Cl)cc1S[C@H]1OC(CO)[C@H](O)C(n2cc(-c3nc(Cl)cs3)cn2)C1O (stereo partly drawn) [Example 30, 5-Chloro-2-cyanopyridin-3-yl 3-[4-(4-chlorothiazol-2-yl)-1H-1,2-pyrazol-1-yl]-3-deoxy-1-thio-α-D-galactopyranoside] | 0.51 µM | 1100 nM
OCC1O[C@H](Sc2cncc(Cl)c2)C(O)C(n2cc(-c3csc(O)n3)cn2)[C@H]1O (stereo partly drawn) [Example 31, 5-Chloropyridin-3-yl 3-deoxy-3-[4-(2-hydroxythiazol-4-yl)-1H-1,2-pyrazol-1-yl]-1-thio-α-D-galactopyranoside] | 0.14 µM | 3400 nM
OCC1O[C@H](Sc2cncc(Cl)c2)C(O)C(n2cnc(-c3cc(F)c(F)c(F)c3)c2)[C@H]1O (stereo partly drawn) [Example 36, 5-Chloropyridin-3-yl 3-deoxy-3-[4-(3,4,5-trifluorophenyl)-1H-1,3-imidazol-1-yl]-1-thio-α-D-galactopyranoside] | 12.7 µM | 67 nM
OCC1O[C@H](Sc2cc(Cl)cnc2N2CC(CO)(CO)C2)C(O)C(n2cc(-c3cc(F)c(F)c(F)c3)cn2)[C@H]1O (stereo partly drawn) [Example 37, 5-Chloro-[3,3-bis(hydroxymethyl)azetidin-1-yl]pyridin-3-yl 3-deoxy-3-[4-(3,4,5-trifluorophenyl)-1H-1,2-pyrazol-1-yl]-1-thio-α-D-galactopyranoside] | 5.1 µM | 13 nM
COC1C(n2ccc(-c3cc(F)c(F)c(F)c3)n2)[C@@H](O)C(CO)O[C@@H]1Sc1cncc(Cl)c1 (stereo partly drawn) [Example 38, 5-Chloropyridin-3-yl 3-deoxy-3-[3-(3,4,5-trifluorophenyl)-1H-1,2-pyrazol-1-yl]-2-O-methyl-1-thio-α-D-galactopyranoside] | 51 µM | 450 nM
OC[C@H]1O[C@H](Sc2ccc(Cl)c(Cl)c2)[C@H](O)[C@@H](c2nc(-c3cc(F)c(F)c(F)c3)co2)[C@H]1O [Example 39, 3,4-Dichlorophenyl 3-deoxy-3-[4-(3,4,5-trifluorophenyl)-oxazol-2-yl]-1-thio-α-D-galactopyranoside] | > 100 µM | 300 nM
